Experimental data published in patent US8183230B2, “Antimicrobial preservatives to achieve multi-dose formulation using beta-cyclodextrins for liquid dosage forms” (priority 2004, dated 2012).
“Also recorded” adds a separate entry of the source.

How the values were obtained:
[1] = Study A; pH: 4.4, SBE-CD: 10%; compound of Formula Ia at 10 mgA/mL; content: ethanol 15%, meta-cresol 0.3%, propylene glycol 50%, thimerosal 0.01
Description: Injection site toleration was measured by inspecting the patient for signs of reaction, including erythema (size); skin thickening (size), pain on palpation and edema. Table VI provides a detailed explanation of the scoring system: a score of 0 (no reaction) to 4 (severe reaction) was given for each characteristic and each injection site daily.
Compound of Formula Ia formulations were evaluated for injection site toleration (hereinafter “IST”).
Formulations were tested in groups of 4 dogs comprised of beagles and mongrels. […] Dogs were observed daily for evidence of reaction at the injection site and a score of 0-4 (see Table VI) was given for each of the following parameters: pain on injection, erythema, tissue thickening, pain on palpation and edema. Dogs were observed daily until day 5 (24 hours after the last dose).

[2] = system: Escherichia coli, Pseudomonas aeruginosa, Staphylococcus aureus, Candida albicans, Aspergillus niger; experiment: Hybrid USP/Ph. Eur. antimicrobial effectiveness test (AET); assay type: cell-based
Description: Preparation of Preserved Formulations. […] Antimicrobial preservatives with optimal activity at a pH outside the nominal formulation value (pH 4.4) were titrated to either 3.5 or 5.0 using 1 N HCl or 1 N NaOH. A stock solution of either 10% or 5% (weight/volume) SBE-CD containing 10 mgA/mL of the compound of Formula Ia citrate was prepared. Preservative was added to the respective formulation on a weight basis.
Antimicrobial Efficacy Testing. A hybrid USP […]/Ph. Eur. 2000 antimicrobial effectiveness test (AET) was performed, as follows: 20 mL of drug product was individually inoculated with 0.1-0.2 mL of bacterial or fungal culture, per USP/Ph. Eur. compendial requirements. The final concentration of organisms in the test sample was between 1×10^5 and 1×10^6 cfu/mL. At initial 6 hr, 24 hr, 7 day, 14 day, and 28 day time intervals, 1 mL of the inoculated product was transferred into 9 mL of a recovery diluent, that was validated to confirm neutralization of the antimicrobial preservative. One mL of the diluted sample was then transferred to a sterile petri dish and combined with 15-20 mL of an agar broth to culture the organisms. Plates were then incubated for 3 to 5 days, upon which colonies were counted. Initial organism contamination was then calculated based on dilution of the initial sample.
Generally, the USP test requirements are less stringent than Ph. Eur. requirements, which typically have an immediate bacteriocidal activity requirement. The Ph. Eur. requirements shown in Table III have either a “Criteria A” or “Criteria B” specification depending on the rate of microorganism reduction, with criteria A requiring an increased bacteriocidal rate. In order to meet the combined hybrid assay, the initial inoculum count of microorganisms needed to be reduced by the amounts listed in Table V.

Which results are given for `Cc1cccc(O)c1` [meta-cresol]?
IST [1]: Good; reducing the microorganisms [2]: effective; AET Results Ph. Eur. Criteria A ([2]; Study A, pH: 4.4, SBE-CD: 10%, compound of Formula Ia at 10 mgA/mL, content: ethanol 15%, meta-cresol 0.3%, propylene glycol 50%, thimerosal 0.01, cells without ✓ print organism (time point)): s. aur (6, 24 hr); also recorded: c. alb (7 d); Ph. Eur. criteria B ([2]; leads of Study B): met criteria B; Ph. Eur. criteria A for preservative efficacy ([2]; meta-cresol containing formulations): robustly meeting Ph. Eur. criteria A; activity against bacteria ([2]; when SBE-CD was present in the formulation): greatly diminished
